According to ChEMBL document CHEMBL4842329 (Eur J Med Chem, 2021):

Legend:
[1] = molecular target: T1, Sodium-dependent serotonin transporter (Homo sapiens, UniProt P31645); assay type: cell-based, COS7
Description: Inhibition of human wild type SERT expressed in COS7 cells assessed as inhibition of [3H]5HT uptake measured for 40 hrs by scintillation counting analysis

[2] = molecular target: T1, Sodium-dependent serotonin transporter; assay: biochemical; assay type: cell-based, HEK293
[3] = molecular target: T1, Sodium-dependent serotonin transporter
Description: Displacement of [125I]RTI55 binding from human wild type SERT

T1 sequence (P31645 whole entry): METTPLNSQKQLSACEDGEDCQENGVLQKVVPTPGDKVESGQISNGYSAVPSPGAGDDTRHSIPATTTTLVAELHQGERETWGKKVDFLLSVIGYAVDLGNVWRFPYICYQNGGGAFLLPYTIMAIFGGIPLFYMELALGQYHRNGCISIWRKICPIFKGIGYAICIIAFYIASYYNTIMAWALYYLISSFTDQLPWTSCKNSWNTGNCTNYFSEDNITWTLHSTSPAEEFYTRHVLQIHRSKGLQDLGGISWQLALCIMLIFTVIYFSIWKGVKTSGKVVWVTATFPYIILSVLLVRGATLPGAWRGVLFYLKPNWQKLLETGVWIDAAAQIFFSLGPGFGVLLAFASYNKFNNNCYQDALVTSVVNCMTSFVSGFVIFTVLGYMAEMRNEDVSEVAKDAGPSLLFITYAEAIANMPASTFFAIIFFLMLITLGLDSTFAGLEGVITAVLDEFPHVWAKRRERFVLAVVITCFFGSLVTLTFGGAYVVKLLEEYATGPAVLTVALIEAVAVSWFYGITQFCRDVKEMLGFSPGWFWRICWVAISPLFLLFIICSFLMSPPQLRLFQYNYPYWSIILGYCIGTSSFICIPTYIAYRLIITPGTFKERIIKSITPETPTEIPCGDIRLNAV

| SMILES | Ki [2] [µM] | further results |
| --- | --- | --- |
| COC(=O)C1CCC2CC(O)C1N2c1ccc(Cl)c(Cl)c1 (stereo not given) |  | IC50 [1]: 5.65 µM |
| CNCCC(Oc1ccc(Br)cc1F)c1ccccc1 (stereo not given) | 0.041 |  |
| COCCCC/C(=N\OCCN)c1ccc(Cl)cc1 | 0.061 |  |
| COCCCC/C(=N\OCCN)c1ccc(Cl)cc1F | 0.202 |  |
| COCCCC/C(=N\OCCN)c1ccc(Br)c(F)c1 | 0.021 |  |
| CNCCC(Oc1ccc(Br)cc1)c1ccccc1 (stereo not given) | 0.024 |  |
| Brc1ccc([C@@H]2CCNC[C@H]2COc2ccc3c(c2)OCO3)cc1 |  | Ki [3]: 0.00107 µM |
| CNCCC(Oc1ccc(F)cc1)c1ccccc1 (stereo not given) | 0.543 |  |
| COCCCC/C(=N\OCCN)c1ccc(Br)cc1F | 0.137 |  |
| CNCCC(Oc1ccccc1)c1ccccc1 (stereo not given) | 1.46 |  |
| COC(=O)C1CCC2CC(O)C1N2c1ccccc1 (stereo not given) |  | IC50 [1]: 0.015 µM |
| COCCCC/C(=N\OCCN)c1ccc(Cl)c(Cl)c1 | 0.009 |  |
| CNCCC(Oc1ccc(Br)c(F)c1)c1ccccc1 (stereo not given) | 0.019 |  |
| CNCCC(Oc1cccc(Cl)c1)c1ccccc1 (stereo not given) | 0.066 |  |
| COCCCC/C(=N\OCCN)c1ccc(Br)cc1 | 0.023 |  |
| CNCCC(Oc1ccc(Cl)cc1F)c1ccccc1 (stereo not given) | 0.052 |  |
| CNCCC(Oc1ccc(I)cc1F)c1ccccc1 (stereo not given) | 0.023 |  |
| COCCCC/C(=N\OCCN)c1ccc(F)cc1 | 1.62 |  |
| CNCCC(Oc1ccc(Cl)c(Cl)c1)c1ccccc1 (stereo not given) | 0.005 |  |
| CNCCC(Oc1cccc(F)c1)c1ccccc1 (stereo not given) | 0.349 |  |
| COCCCC/C(=N\OCCN)c1ccc(I)cc1 | 0.015 |  |
| COCCCC/C(=N\OCCN)c1ccc(Cl)c(F)c1 | 0.062 |  |
| CNCCC(Oc1ccc(Cl)c(F)c1)c1ccccc1 (stereo not given) | 0.031 |  |
| CNCCC(Oc1ccc(Cl)cc1)c1ccccc1 (stereo not given) | 0.055 |  |
| CNCCC(Oc1ccc(I)cc1)c1ccccc1 (stereo not given) | 0.014 |  |
